Each structure is given as a SMILES string.

For test [1], the target named is T1, recombinant human MAO-A (Homo sapiens, UniProt P21397).
T1 construct: purchased Sigma Aldrich
T1 sequence (P21397 1-527): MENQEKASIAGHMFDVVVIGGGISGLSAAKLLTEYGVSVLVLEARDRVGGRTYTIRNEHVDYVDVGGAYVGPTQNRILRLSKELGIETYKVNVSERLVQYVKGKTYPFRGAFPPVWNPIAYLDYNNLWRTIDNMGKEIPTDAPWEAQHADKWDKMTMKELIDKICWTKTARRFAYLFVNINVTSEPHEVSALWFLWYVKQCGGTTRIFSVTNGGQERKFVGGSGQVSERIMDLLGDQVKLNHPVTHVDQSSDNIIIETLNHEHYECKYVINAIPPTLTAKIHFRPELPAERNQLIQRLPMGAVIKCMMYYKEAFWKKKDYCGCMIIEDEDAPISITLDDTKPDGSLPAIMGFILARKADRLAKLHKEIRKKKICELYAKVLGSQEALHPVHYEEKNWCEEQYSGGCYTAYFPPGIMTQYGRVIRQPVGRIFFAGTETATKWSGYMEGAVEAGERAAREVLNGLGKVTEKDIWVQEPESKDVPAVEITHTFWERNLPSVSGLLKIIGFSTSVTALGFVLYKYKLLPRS
Nature of the test: Inhibition of human recombinant MAO-A. Format: biochemical. Particulars: incubation time of 2 hours, tyramine 100 μM. The protocol: Method to Determine the Ability of Compounds of Formula I to Inhibit Human Recombinant MAO-A
The selectivity of the compounds of this invention was tested by determining their ability to inhibit MAO-A activity in vitro, using recombinant human MAO-A (0.003 mg/mL; Sigma Aldrich). The assay was performed in a similar way as for human SSAO/VAP-1 (EXAMPLE 9) except, the substrate tyramine was used at 100 μM in place of benzylamine and the assay was run after an incubation time of 2 hours.

For test [2], the target named is T2, human recombinant SSAO/VAP-1 (Homo sapiens, UniProt Q16853).
T2 construct: a cloned cDNA template corresponding to residues 34-763 of human SSAO/VAP-1; TEV cleavage site (N); made in house
T2 sequence (Q16853 34-763): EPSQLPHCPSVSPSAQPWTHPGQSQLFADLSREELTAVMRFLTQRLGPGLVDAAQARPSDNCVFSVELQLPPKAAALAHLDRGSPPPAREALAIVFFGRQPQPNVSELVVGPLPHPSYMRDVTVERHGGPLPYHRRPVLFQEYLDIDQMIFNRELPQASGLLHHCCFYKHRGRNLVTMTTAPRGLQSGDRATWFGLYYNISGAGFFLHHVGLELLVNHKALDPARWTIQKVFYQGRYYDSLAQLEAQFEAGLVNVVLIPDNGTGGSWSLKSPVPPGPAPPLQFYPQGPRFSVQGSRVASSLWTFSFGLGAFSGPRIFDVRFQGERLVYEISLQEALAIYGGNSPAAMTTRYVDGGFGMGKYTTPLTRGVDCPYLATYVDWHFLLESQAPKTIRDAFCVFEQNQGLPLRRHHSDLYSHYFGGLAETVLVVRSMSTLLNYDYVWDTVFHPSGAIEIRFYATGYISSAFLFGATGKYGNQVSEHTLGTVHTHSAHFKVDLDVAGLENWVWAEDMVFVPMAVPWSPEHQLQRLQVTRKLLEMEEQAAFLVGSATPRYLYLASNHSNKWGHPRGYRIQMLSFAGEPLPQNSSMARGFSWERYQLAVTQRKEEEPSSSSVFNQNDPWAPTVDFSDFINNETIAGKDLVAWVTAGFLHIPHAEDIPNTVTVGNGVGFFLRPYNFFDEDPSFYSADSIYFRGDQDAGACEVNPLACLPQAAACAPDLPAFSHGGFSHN
Kind of test: Inhibition of human recombinant SSAO/VAP-1 (Amplex Red fluorometric assay). Format: biochemical. Particulars: 30 min incubation, 37° C., benzylamine substrate. The protocol: Method to Determine the Ability of Compounds of Formula I to Inhibit Human Recombinant SSAO/VAP-1
Human recombinant SSAO/VAP-1 amine oxidase activity was determined using the method as described for monoamine oxidase, copper-containing amine oxidases and related enzymes (Holt A. and Palcic M., Nat. Protoc. 2006, 1, 2498-2505). Briefly, a cloned cDNA template corresponding to residues 34-763 of human SSAO/VAP-1, and incorporating a mouse Ig kappa (κ) signal sequence, N-terminal flag epitope tag and tobacco etch virus (TEV) cleavage site, was assembled in a mammalian expression vector (pLO-CMV) by Geneart AG. This vector containing human SSAO/VAP-1 residues was transfected into CHO-K1 glycosylation mutant cell line, Lec 8. A clone stably expressing human SSAO/VAP-1 was isolated and cultured in large scale. Active human SSAO/VAP-1 was purified and recovered using immunoaffinity chromatography. This was used as the source for SSAO/VAP-1 activity. A high-throughput colorimetric assay was developed using either 96 or 384 well format. Briefly, in a standard 96 well plate assay 50 μL of purified human SSAO/VAP-1 (0.25 μg/mL) in 0.1 M sodium phosphate buffer (pH 7.4) was added into each well. […] After 30 min incubation, 50 μL of the reaction mixture containing 600 μM benzylamine (Sigma Aldrich), 120 μM Amplex Red (Sigma Aldrich) and 1.5 U/mL horseradish peroxidase (Sigma Aldrich) prepared in 0.1 M sodium phosphate buffer (pH 7.4) were added to the corresponding well. The fluorescence unit (RFU) was read every 2.5 min for 30 min at 37° C. excitation 565 nm and emission 590 nm (Optima; BMG labtech). The slope of the kinetics for each well was calculated using MARS data analysis software (BMG labtech) and this value was used to deduce the IC50 value (Dotmatics).

Test [3] has as its target T3, Recombinant human MAO-B (Homo sapiens, UniProt P27338).
T3 construct: purchased Sigma Aldrich
T3 sequence (P27338 1-520): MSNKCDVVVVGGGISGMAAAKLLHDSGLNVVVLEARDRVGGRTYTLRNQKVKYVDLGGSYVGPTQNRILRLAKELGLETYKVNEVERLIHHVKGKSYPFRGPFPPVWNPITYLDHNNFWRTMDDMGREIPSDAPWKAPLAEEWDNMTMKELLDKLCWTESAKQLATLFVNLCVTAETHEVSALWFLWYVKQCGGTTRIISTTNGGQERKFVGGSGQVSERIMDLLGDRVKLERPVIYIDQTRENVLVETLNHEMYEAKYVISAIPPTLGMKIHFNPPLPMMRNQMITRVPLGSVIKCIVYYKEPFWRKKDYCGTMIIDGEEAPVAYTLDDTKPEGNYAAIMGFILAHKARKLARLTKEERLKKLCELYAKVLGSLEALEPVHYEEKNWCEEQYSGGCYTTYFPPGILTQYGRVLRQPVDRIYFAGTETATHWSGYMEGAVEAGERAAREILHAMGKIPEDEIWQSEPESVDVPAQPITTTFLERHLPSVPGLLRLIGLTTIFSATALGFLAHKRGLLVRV
Nature of the test: Inhibition of human recombinant MAO-B. Particulars: incubation time of 2 hours, benzylamine 100 μM. Format: biochemical. The protocol:
Method to Determine the Ability of Compounds of Formula I to Inhibit Human Recombinant MAO-B
The ability of the compounds of this invention to inhibit MAO-B activities in vitro was tested. Recombinant human MAO-B (0.06 mg/mL; Sigma Aldrich) was used as source of MAO-B enzyme activities.

The test system of test [4] is Myogenic cell cultures from both mdx mice and DMD patients. To be noted: in vitro; cited from earlier work.
Test [5] deals with mdx mice. Particulars: 3-month old mdx mice, Vitiello L. et al. 2018; cited from earlier work.

Regarding `N#Cc1ccc(OC/C(=C/F)CN)cc1F` [Compound 2, (E)-4-((2-(aminomethyl)-3-fluoroallyl)oxy)-2-fluorobenzonitrile], the IC50 (in general, the midpoint of a concentration-inhibition curve) in test [1] was more than 30 µM; in test [2], less than 0.01 µM; in test [3] it was less than 0.05 µM.
For `N#Cc1ccc(OC/C(=C/F)CN)cc1Br` [Compound 3, (E)-4-((2-(aminomethyl)-3-fluoroallyl)oxy)-2-bromobenzonitrile], in that order: 3 to 30 µM, less than 0.01 µM and less than 0.05 µM.
Take `N#Cc1ccc(OC/C(=C/F)CN)c(F)c1` [Compound 4, (E)-4-((2-(aminomethyl)-3-fluoroallyl)oxy)-3-fluorobenzonitrile]: the IC50 is 3 to 30 µM in test [1], less than 0.01 µM in test [2] and less than 0.05 µM in test [3].
The corresponding values for `Cc1cc(OC/C(=C/F)CN)ccc1C#N` [Compound 5, (E)-4-((2-(aminomethyl)-3-fluoroallyl)oxy)-2-methylbenzonitrile] are 3 to 30 µM, less than 0.01 µM and less than 0.05 µM.
As for `N#Cc1ccc(OC/C(=C\F)CN)cc1` [Compound 6], the results for the IC50 in test [1], in test [2] and in test [3] were 0.3 to 3 µM, less than 0.01 µM and less than 0.05 µM, respectively.
`COc1cc(OC/C(=C/F)CN)ccc1C#N` [Compound 7]: the figures for the IC50 in test [1], in test [2] and in test [3] were more than 30 µM, 0.01 to 0.5 µM and 0.05 to 0.5 µM, respectively.
In the case of `N#Cc1ccccc1OC/C(=C/F)CN` [Compound 8], the IC50 is less than 0.3 µM in test [1], more than 1 µM in test [2] and less than 0.05 µM in test [3].
The corresponding values for `N#Cc1cccc(OC/C(=C/F)CN)c1` [Compound 9] are 0.3 to 3 µM, less than 0.01 µM and less than 0.05 µM.
Turning to `NC/C(=C\F)COc1ccccc1` [Compound 10], the IC50 in test [1] was 0.3 to 3 µM; in test [2], 0.01 to 0.5 µM; in test [3], less than 0.05 µM.
For `NC/C(=C\F)COc1ccc(C(F)(F)F)cc1` [Compound 11], in that order: 3 to 30 µM, less than 0.01 µM and less than 0.05 µM.
Turning to `CS(=O)(=O)c1ccc(OC/C(=C/F)CN)cc1` [Compound 12], the IC50 was more than 30 µM in test [1], less than 0.01 µM in test [2] and more than 1 µM in test [3].
Turning to `NC/C(=C\F)COc1ccc(OC(F)(F)F)cc1` [Compound 13], the IC50 is less than 0.3 µM in test [1], less than 0.01 µM in test [2] and less than 0.05 µM in test [3].
The corresponding values for `COc1ccc(OC/C(=C\F)CN)cc1` [Compound 14] are 0.3 to 3 µM, less than 0.01 µM and less than 0.05 µM.
As for `C[C@H](NCc1ccc(OCc2cccc(F)c2)cc1)C(N)=O` [safinamide], in test [4], the “susceptibility (sensitivity) to oxidative stress” value is “abrogated”. Besides, in test [5], the “myofiber damage, oxidative stress and muscle function” value is “reduced myofiber damage and oxidative stress, and improved muscle function”.

These data come from patent US12428370B2, “Haloallylamine dual amine oxidase inhibitors” (Syntara Limited, priority 2020, dated 2025).
